Laboratory results: US6503943B1, “Platinum complex, its preparation and therapeutic application” (priority 1998, dated 2003)
Several values for one entry are separate records, joined by “and”; a condition that tells them apart may be missing. Identical values can stand only once.

What was measured:
[1] = test system: mammal adenocarcinoma MC2111; experiment: Antitumor effect at animals with solid form of mammal adenocarcinoma MC2111 (Example 9); format: in vivo, mice DBA1; conditions: for Tumor mass (%) of control / Tumor mass, Arithm. mean: 5th-13 day, tumor size 14th day, mass from regression
[2] = test system: leucaemia L1210; experiment: Antitumor effect at animals with leucaemia L1210, continual regimen (Example 7); format: in vivo, mice DBA2; conditions: for Survival (in % of control) / Survival time, Geom. mean: 1th-9th day
[3] = test system: leucaemia L1210; experiment: Antitumor effect at animals with leucaemia L1210, single administration (Example 4); format: in vivo, mice DBA2; conditions: mouse, in vivo
[4] = test system: ascitic form of Ehrlich tumor (ATE); experiment: Antitumor effect at animals with ascitic form of Ehrlich tumor (ATE) (Example 11);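 as to all read-outs here: half of each dose group killed on day 10, tumor mass taken as animal mass lost on ascites aspiration, ascitocrit by microhematocrit centrifuge, rest followed daily for survival versus reference group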; conditions: for Survival (in % of control) / Survival time, Geom. mean / Total ascitocrit (%) of control / Total ascitocrit (mass of cell fraction of a tumor), Arithm. mean / Tumor mass (%) of control / Tumor mass, Arithm. mean: 1th-9th day; for Total ascitocrit (%) of control / Total ascitocrit (mass of cell fraction of a tumor), Arithm. mean / Tumor mass (%) of control / Tumor mass, Arithm. mean: dissection 10th day
Description: After termination of application, one half of animals in each dosage group was destroyed at 10th day after inoculation in ether narcosis, the ascits were sucked out after laparotomy and the mass of a tumor at each of the animals was determined from the difference of mass before and after sucking out the ascit. Ascitocrit in ascitic liquor of single animals was determined on microhematocrit centrifuge in heparinized capillary tubes of 75 mm length. The value of “total ascitocrit”corresponding to a mass of cells in ascitic liquor has been determined from percentage of ascitocrit and mass of the tumor. Remaining animals were left for monitoring the survival time. In these animals, the survival time was monitored on daily basis. The dependence of the survival time value on the applied dose was evaluated in comparison with the reference group.
The single estimated time points as biological responses were evaluated by a test of equivalence of two mean values (Student's t-test). Geometric mean was calculated from single values of survival time, arithmetic means were calculated from single values of tumor mass and total ascitocrit. Difference between mean values was evaluated by a test of equivalence of two mean values (Student's t-test) under presumption of normal probability distribution of mass values as well as of total ascitocrit values and of logarithmic/normal distribution of temporal values, all under presumption of possible unknown disseminations. Those diferences in mean values, whose values of a test criterium exceeded the critical value at the 5% and 1% significance level were evaluated as statistically significant and highly statistically significant, respectively.
The optimum dosage has been calculated from values of survival time according to the proportional risk model of Cox (Carter et al., 1982). Parameters of Weinbull distribution and logarithmic transformation of introductory data were used for estimation of a basic and modified survival function from experimental data.

[5] = test system: ascitic form of Ehrlich tumor (ATE); experiment: Antitumor effect at animals with ascitic form of Ehrlich tumor (ATE) (Example 10); format: in vivo, mice ICR; conditions: for Survival (in % of control) / Survival time, Geom. mean / Tumor mass (%) of control / Tumor mass, Arithm. mean: 1st-9th day; for Tumor mass (%) of control / Tumor mass, Arithm. mean: dissection 10th day
[6] = test system: leucaemia L1210; experiment: Antitumor effect at animals with leucaemia L1210, continual versus intermitent regimen (Example 6); format: in vivo, mice DBA2
[7] = test system: Gardner lymphosarcoma; experiment: Antitumor effect at animals with solid form of Gardner lymphosarcoma (Example 8); format: in vivo, mice C3H; conditions: 5th day, tumors weighed 14th day
[8] = test system: leucaemia L1210; experiment: Antitumor effect at animals with leucaemia L1210, intermitent administration 3x (Example 5); format: in vivo, mice DBA2; conditions: for Survival (in % of control) / Survival time, Geom. mean: 1st, 5th and 9th day
[9] = 9 mg/kg/day p.o. 3x, 1,5,9th day (lowest dose group)
[10] = 12 mg/kg/day p.o. 9x, 1-9th day
[11] = 18 mg/kg/day p.o. 3x, 1,5,9th day
[12] = 36 mg/kg/day p.o. 3x, 1,5,9th day

## CC(=O)[O-].CC(=O)[O-].N.NC12CC3CC(CC(C3)C1)C2.[Cl-].[Cl-].[Pt+4] [LA-12, Af-bis (Acetato)-b-(1-Adamantylamine)-c-ammin-de-dichloroplatinum (IV) Complex]
[1]; 3 mg/kg/day p.o. 9x
  Tumor mass (%) of control: 86%
  Tumor mass, Arithm. mean: 4.02 g
[1]; 6 mg/kg/day p.o. 9x
  Tumor mass (%) of control: 80%
  Tumor mass, Arithm. mean: 3.73 g
[1]; 12 mg/kg/day p.o. 9x
  Tumor mass (%) of control: 87%
  Tumor mass, Arithm. mean: 4.05 g
[1]; mouse, in vivo
  Survival (in % of control): 116% and 117%
  Survival time, Geom. mean: 25.1 days and 25.3 days and 27.7 days
[1]; p.o.×9 12, 6, 3 mg/kg/day, Platidiam 8 and 4 mg/kg s.c. once
  Evaluation of antitumor effect, in words: antitumor effective
[2]; 3 mg/kg/day p.o. 9x
  Survival (in % of control): 198%
  Survival time, Geom. mean: 44.6 days
[2]; 6 mg/kg/day p.o. 9x
  Survival (in % of control): 172%
  Survival time, Geom. mean: 38.8 days
[2]; 12 mg/kg/day p.o. 9x
  Survival (in % of control): 210%
  Survival time, Geom. mean: 47.2 days
[2]; in the dosages used, p.o.×9
  Evaluation of antitumor effect (survival time versus control), in words: antitumor effective
  Increase of survival time value in comparison with the control group: 130%
[3]
  Increase of mean value of survival time in comparison with the untreated control group: 55%
[4]; 3 mg/kg/day p.o. 9x
  Survival (in % of control): 143%
  Survival time, Geom. mean: 12.7 days
  Total ascitocrit (%) of control: 100%
  Total ascitocrit (mass of cell fraction of a tumor), Arithm. mean: 0.68 g
  Tumor mass (%) of control: 110%
  Tumor mass, Arithm. mean: 4.32 g
[4]; 6 mg/kg/day p.o. 9x
  Survival (in % of control): 153%
  Survival time, Geom. mean: 13.6 days
  Total ascitocrit (%) of control: 99%
  Total ascitocrit (mass of cell fraction of a tumor), Arithm. mean: 0.68 g
  Tumor mass (%) of control: 78%
  Tumor mass, Arithm. mean: 3.07 g
[4]; 12 mg/kg/day p.o. 9x
  Survival (in % of control): 134%
  Survival time, Geom. mean: 11.9 days
  Total ascitocrit (%) of control: 64%
  Total ascitocrit (mass of cell fraction of a tumor), Arithm. mean: 0.44 g
  Tumor mass (%) of control: 47%
  Tumor mass, Arithm. mean: 1.86 g
[4]; p.o.×9, Platidiam 8 and 4 mg/kg s.c.×1, Tab. 8.1
  Evaluation of antitumor effect (survival time versus control), in words: didnot increase the survival time statistically significant
[5]; 3 mg/kg/day p.o. 9x
  Survival (in % of control): 157%
  Survival time, Geom. mean: 18.0 days
  Tumor mass (%) of control: 104%
  Tumor mass, Arithm. mean: 2.76 g
[5]; 6 mg/kg/day p.o. 9x
  Survival (in % of control): 219%
  Survival time, Geom. mean: 25.1 days
  Tumor mass (%) of control: 100%
  Tumor mass, Arithm. mean: 2.66 g
[5]; 12 mg/kg/day p.o. 9x
  Survival (in % of control): 135%
  Survival time, Geom. mean: 15.5 days
  Tumor mass (%) of control: 84%
  Tumor mass, Arithm. mean: 2.23 g
[5]; Tab. 7-2
  Significance of mean survival time increase in comparison with untreated control (p≦0.01), in words: atatistically highly significant
[6]; 3 mg/kg/day p.o. 9x, 1-9th day
  Survival (in % of control): 96%
  Survival time, Geom. mean: 11.1 days
[6]; 6 mg/kg p.o.×9
  Increase of survival time value in comparison with the control group: 130%
[6]; 6 mg/kg/day p.o. 9x, 1-9th day
  Survival (in % of control): 230%
  Survival time, Geom. mean: 16.6 days
[6]; [9]
  Survival (in % of control): 115%
  Survival time, Geom. mean: 13.3 days
[6]; [10]
  Survival (in % of control): 118%
  Survival time, Geom. mean: 13.6 days
[6]; [11]
  Survival (in % of control): 158%
  Survival time, Geom. mean: 18.3 days
[6]; [12]
  Survival (in % of control): 137%
  Survival time, Geom. mean: 15.9 days
[6]; LA-12 6 mg/kg p.o.×9, Platidiam 8 and 4 mg/kg s.c.×1, LA-2 any of the dosage groups
  Evaluation of antitumor effect (survival time versus control), in words: antitumor effective
[7]; 2 mg/kg p.o. 1x
  Tumor mass (%) of control: 80%
  Tumor mass, Arithm. mean: 5.02 g
[7]; 8 mg/kg p.o. 1x
  Tumor mass (%) of control: 88%
  Tumor mass, Arithm. mean: 5.46 g
[7]; 32 mg/kg p.o. 1x
  Tumor mass (%) of control: 77%
  Tumor mass, Arithm. mean: 4.80 g
[8]; 2 mg/kg/day p.o. 3x
  Survival (in % of control): >121%
  Survival time, Geom. mean: 19.0 days
[8]; 4 mg/kg/day p.o. 3x
  Survival (in % of control): 147%
  Survival time, Geom. mean: 23.0 days
[8]; 4 mg/kg/day p.o. 3x, listed as LA-] 2
  Survival (in % of control): 148%
[8]; 8 mg/kg/day p.o. 3x
  Survival (in % of control): 118%
  Survival time, Geom. mean: 18.5 days
[8]; intermitent oral administration 3x
  Optimum dose as calculated according to Carter: 4.55 mg/kg/day p.o.×3
